Patent US20240325374A1, “INHIBITING INTRACELLULAR PATHOGENS” (THE RESEARCH INSTITUTE AT NATIONWIDE CHILDREN'S HOSPITAL, priority 2021, published 2024)
pEC50: −log10 of the molar value.

Legend:
uninfected mice = assay: Toxicity study of KH-1-2 in vivo
Procedure: To examine the toxicity of KH-1-2, mice were intraperitoneally (i.p.) given KH-1-2 that was dissolved in 200 μl of polyethylene glycol 400 (PEG 400)-0.9% saline-ethanol (50:35:15) at 1 mg and 10 mg/kg of body weight per day for 12 consecutive days. Mice in the control groups received 200 μl of PEG-saline-ethanol. The experimental animals were observed daily throughout the study for clinical signs, and mortality. At the end of the experiment, mice were sacrificed, and liver, spleen, and kidney were collected, fixed in 4% paraformaldehyde for 72 hrs, processed and stained with hematoxylin and eosin (H&E) for histopathologic evaluation, which was performed at the Morphology Core at Nationwide Children's Hospital.
To examine the in vivo toxicity of KH-1-2, uninfected mice were given KH-1-2 intraperitoneally in 200 μl of polyethylene glycol 400 (PEG 400)-0.9% saline-ethanol (50:35:15) at 1 and 10 mg/kg body weight daily for 12 consecutive days. Mice in the control group were treated with an equal amount of diluent. Mice were monitored for clinical signs and at day 13, the liver, spleen, and kidney were collected for histopathologic evaluation.

[1] = tested on: ciprofloxacin-resistant S. typhimurium; assay: Mouse model of typhoid fever, ciprofloxacin-resistant S. typhimurium, survival; assay type: in vivo, BALB/c mice
Procedure: S. typhi is a human-restricted pathogen and is unable to colonize in mice. However, S. typhimurium causes a typhoid fever-like disease in mice and is widely used as a model to study human typhoid fever. Johnson, R., E. Mylona, and G. Frankel, Cell Microbiol, 2018. 20(9): p. e12939. […] Mice were infected with the ciprofloxacin-resistant S. typhimurium at a lethal dose of 10^6 CFU per mouse in 200 μl PBS via the i.p. route.
After determining the maximum tolerable dose of KH-1-2 by the i.p. route (10 mg/kg of body weight per day), the protective efficacy of KH-1-2 as a treatment for typhoid fever was evaluated. Mice (4 or 5 mice per group) were infected at day 0 with a lethal dose of the ciprofloxacin-resistant S. typhimurium isolate as described above. One day post-infection, the infected mice were given KH-1-2 prepared in 200 μl PBS at 0.05, 0.1, and 0.25 mg/kg body weight per day via i.p. delivery for 14 consecutive days.
We next sought to examine the effectiveness of delivering KH-1-2 for controlling a ciprofloxacin-resistant S. typhimurium isolate in a mouse model of typhoid fever. Mice were challenged with a lethal dose of bacteria via oral gavage and the infected mice were i.p. treated with KH-1-2 prepared in 200 μl PBS at 0.05, 0.1, and 0.25 mg/kg body weight/day for 14 consecutive days. […] As expected, all mice in the control group were moribund before or at day 12 post-infection.

S. typhi strain TY2 = assay: Bacterial growth in macrophages (intracellular CFU), S. typhi in J774.1; assay type: cell-based; conditions: infected J774.1, 24 hrs post treatment
Excerpt: (§1) Hoang et al., International Journal of Pharmaceutics, 2014. 477(1-2): p. 334-343.

[2] = tested on: S. typhimurium wild-type strain ATCC 14028; assay: Bacterial growth in macrophages (intracellular CFU), wild-type S. typhimurium in J774.1; assay type: cell-based
Excerpt: as §1
The J774.1 cells were infected with S. typhimurium and treated with KH-2.

macrophages = assay: Toxicity of compound alone to macrophages by LDH release; assay type: cell-based; conditions: effective concentrations
[3] = tested on: PLB-985 neutrophil-like cells; assay: Neutrophil reactive oxygen species production assay; assay type: cell-based; conditions: various concentrations, luminol chemiluminescence for 1 hour
Procedure: PLB-985 cells that were cultured in RPMI supplemented with 10% FBS and penicillin-streptomycin (100 μg/ml each) were differentiated to a neutrophil-like phenotype by 6-day incubation in RPMI supplemented with 0.5% N,N-dimethylformamide, 0.5% FBS, 1% Nutridoma-SP (Roche; Mannheim, Germany), […] L-glutamine, and 1× penicillin/streptomycin. Media was replaced on day 3. On day 6 after differentiation, the medium was removed and replaced with 100 μl fresh medium containing different concentrations of KH-1-2. Cells in the positive control group were stimulated with 400 ng PMA/ml. Cells in the negative control group were treated with an equivalent concentration of DMSO. All groups were supplied with luminol (final concentration of 500 μM) and reactive oxygen species (ROS) production at 37° C. was monitored in triplicate by luminol-dependent chemiluminescence measured every 2 minutes for 1 hour using a Spectra Max M3 plate reader.

[4] = tested on: S. typhimurium-infected J774.1 macrophages; assay: LDH release from Salmonella-infected macrophages; assay type: cell-based, murine; conditions: 5 μM, 10 μM and 20 μM, after 24 h
Procedure: The strategy to identify host-targeted compounds is outlined in FIG. 1. Briefly, J774.1 macrophages in suspension at 3×10^6 cells/ml were infected with S. typhimurium at a multiplicity of infection (MOI) of 10 for 1 hour with orbital shaking at 80 rpm. […] The infected macrophages were resuspended in a medium containing 10 μg/ml gentamicin, seeded onto 96-well plates at 10^5 cells/well in 150 μl medium, and allowed to adhere to the well for three hours. The infected cells in each well were then treated with 25 μM of each compound from the ATP mimetic library using a multichannel pipette. […] After 24 hours of incubation, an LDH assay (Roche Applied Science, Indianapolis, IN) was performed using 50 μl of supernatant from each well. Absorbance at 570 nm was determined via a plate reader Spectra Max M3. […]
We developed a cell-based assay to screen 3000 compounds of an ATP-mimetic library purchased from ChemBridge using J774.1 macrophages for those that protect S. typhimurium-infected macrophages from death. The viability of Salmonella-infected J774.1 cells was determined by measuring LDH release from the infected cells. […] To examine whether the reduction in LDH release was due to the limited growth of the bacteria intracellularly, the infected cells were treated with various concentrations of KH-1, and the intracellular bacterial load was determined at 24 hours post-treatment. […]

S. typhimurium [5] = assay: KH-2 protection of mice from lethal S. typhimurium infection, survival; assay type: in vivo, BALB/c mice; conditions: 0.5, 1.0, 2.5 and 5 mg/kg/day i.p., day 1 to day 12, oral infection 10^6 bacteria/mouse, survival to day 14
Procedure: Pathogen-free 6- to 8-week-old female BALB/c mice were purchased from Harlan Sprague. Mice (3 mice/group, except the vehicle control group) were provided food and water ad libitum in sterile microisolator cages and allowed to acclimatize for 3 days before challenge. Mice were orally infected with 10^6 bacteria/mouse (day 0) in 200 μl PBS. The infected mice were intraperitoneally given KH-2 at different doses (5 mg, 2.5 mg, 1 mg, and 0.5 mg/kg body weight/day) in 200 μl PBS from day 1 to day 12 post infection. Vehicle (DMSO) was added as the control group. The mice were monitored for survival until day 14 post infection. […] A mouse model of typhoid fever was used to assess the efficacy of KH-2 in increasing the survival rate of infected mice.

S. typhimurium [6] = assay: Broth antibacterial assay (OD600 in LB); assay type: cell-based; conditions: KH-2 10 μM, 20 μM and 50 μM
Procedure: An equivalent amount of DMSO was added in a control group. The bacterial growth was monitored at an optical density at 600 nm (OD600) at the indicated time points using a plate reader Spectra Max M3.
Overnight cultures of S. typhimurium were sub-cultured (1:100) in fresh Luria-Bertani (LB) broth in presence of different concentration of KH-2 and incubated at 37° C. The vehicle control (DMSO) groups were included. The experiments were performed in 96-well plates. The bacterial growth was monitored at different time-points by measuring optical density at 600 nm (OD600).

Row | Compound | liver histopathology (uninfected mice; 1 mg/kg i.p. daily) | liver histopathology (uninfected mice; 10 mg/kg i.p. daily) | maximum tolerable dose (uninfected mice; i.p. route, mice) | clinical signs (uninfected mice; uninfected mice, i.p., 1 and 10 mg/kg body weight daily, 12 consecutive days) | immune cell migration and apoptosis in liver, spleen, kidney (uninfected mice; uninfected mice, i.p., 1 and 10 mg/kg daily, 12 days) | histologic evaluation of the liver, spleen, and kidney (uninfected mice; uninfected mice, i.p., 1 and 10 mg/kg daily, 12 days, organs at day 13) | survival ([1]; 0.1 mg/kg body weight/day i.p., 14 consecutive days, lethal dose 10^6 CFU/mouse) | survival versus control untreated group ([1]; 0.05, 0.1 and 0.25 mg/kg body weight/day i.p., 14 days, p<0.05) | intracellular growth of S. typhi, compared with KH-1 (S. typhi strain TY2) | pEC50 ([2]; Salmonella enterica, infected J774.1 cells, CFU at 24 hrs post treatment, % of DMSO control, read-out: half maximal effective concentration (EC50) on S. typhimurium) | reduction in bacterial load in infected macrophages ([2]; in vitro treatment of Salmonella infection) | intracellular bacterial growth in combination with sub-optimal ciprofloxacin ([2]; infected macrophages, with sub-optimal dose of ciprofloxacin, 24 hours post-treatment) | toxicity to macrophages as measured by LDH release (macrophages) | reactive oxygen species (ROS) production [3] | lactate dehydrogenase (LDH) release from Salmonella infected J774.1 macrophages [4] | growth of Salmonella in J774.1 macrophages (intracellular CFU) ([2]; KH-2 5 μM, 10 μM and 20 μM, after 24 hours) | survival of mice after lethal Salmonella infection (S. typhimurium [5]) | growth of Salmonella in Luria-Bertani (LB) bacterial growth media (OD600) (S. typhimurium [6])
1 | O=C1c2oc3ccccc3c(=O)c2C(c2cccc(Oc3ccccc3)c2)N1Cc1ccc(F)cc1 (stereo not drawn) [KH-1-2, 2-(4-fluorobenzyl)-1-(3-phenoxyphenyl)-1,2-dihydrochromeno[2,3-c] pyrrole-3,9-dione] | no adverse effects | minimal alterations including increased infiltration of lymphocytic cells and neutrophils | 10 mg/kg of body weight per day | no adverse clinical signs | No increase in immune cell migration or significant apoptosis | no dose-related macroscopic or microscopic findings | 60% | significantly greater survival | more effective at reducing the intracellular growth of S. typhi | 5.59 | 8- to 10 fold | further reduces Salmonella growth inside macrophages | not toxic to macrophages at the effective concentrations | does not involve in induction of reactive oxygen species (ROS) production | – | – | – | –
2 | COC(=O)c1cccc(COC(=O)c2cc(O)nc3ccccc23)c1 [KH-2, 3-(methoxycarbonyl)benzyl 2-hydroxy-4-quinolinecarboxylate] | – | – | – | – | – | – | – | – | – | – | – | – | – | – | reduced lactate dehydrogenase (LDH) release from Salmonella infected J774.1 macrophages | inhibits the growth of Salmonella in J774.1 macrophages | protects mice from lethal Salmonella infection | does not inhibit the growth of Salmonella in Luria-Bertani (LB) bacterial growth media
